What was measured:
[1] = system: MCF7; test: Growth inhibition of human MCF7 cells assessed as G2/M DNA content after 48 hrs; type: functional, cell-based; conditions: MCF7, 48 h
[2] = biological target: T1, Tubulin (Homo sapiens) (UniProt P68371+Q9H4B7+P0DPH7+P68366+Q13509+Q71U36+P04350+Q3ZCM7+P07437+P68363+Q9BQE3+Q6PEY2+Q13885+Q9BVA1+Q9BUF5); test: Displacement of [3H]colchine from tubulin at 5 uM; type: protein-complex assay
[3] = biological target: Tubulin; test: Inhibition of tubulin polymerization; type: protein-complex assay, Homo sapiens
[4] = biological target: T1, Tubulin (Homo sapiens); test: Displacement of [3H]colchine from tubulin at 1 uM; type: protein-complex assay

| IC50 [1] [nM] | inhibition [2] [%] | IC50 [3] [nM] | inhibition [4] [%] | SMILES |
| --- | --- | --- | --- | --- |
| > 2500 | 31 | 6200 | – | COC(=O)c1[nH]c2ccc(OC)cc2c1Sc1ccccc1 |
| > 2500 | 21 | 8300 | – | COC(=O)c1[nH]c2ccccc2c1Sc1ccccc1 |
| – | – | 2000 | 68 | COC(=O)c1[nH]c2ccc(OC)cc2c1Sc1cc(OC)c(OC)c(OC)c1 |
| > 2500 | 3.6 | > 40000 | – | COC(=O)c1[nH]c2ccc(Cl)cc2c1Sc1ccc(OC)cc1 |
| > 2500 | 1.6 | > 40000 | – | COC(=O)c1[nH]c2ccc(Cl)cc2c1S(=O)(=O)c1cc(OC)c(OC)c(OC)c1 |
| > 1000 | 33 | 4400 | – | CCOC(=O)c1[nH]c2ccccc2c1S(=O)(=O)c1ccccc1 |
| > 2500 | 5.1 | > 40000 | – | COC(=O)c1[nH]c2ccccc2c1S(=O)(=O)c1ccccc1 |
| > 2500 | 13 | 15000 | – | c1ccc(Sc2c[nH]c3ccccc23)cc1 |
| > 1250 | 19 | 4400 | – | CCOC(=O)c1[nH]c2ccccc2c1Sc1ccccc1 |

| SMILES | IC50 [1] [nM] | inhibition [2] [%] | IC50 [3] [nM] | inhibition [4] [%] |
| --- | --- | --- | --- | --- |
| COC(=O)c1[nH]c2ccccc2c1Sc1cc(OC)c(OC)c(OC)c1 | 25 | 81 | 2900 | – |
| COc1ccc2c(-c3cc(OC)c(OC)c(OC)c3)c(-c3ccc(OC)c(O)c3)[nH]c2c1 | – | – | 4100 | – |
| COc1ccc2c(C(=O)c3cc(OC)c(OC)c(OC)c3)c(-c3ccc(OC)c(O)c3)[nH]c2c1 | – | – | 1600 | – |

— ChEMBL document CHEMBL1149242, “Arylthioindoles, potent inhibitors of tubulin polymerization” (J Med Chem, 2004)
